Experimental data from patent US4497742A, “Isomerization of β-lactam compounds” (Takeda Chemical Industries, Ltd., priority 1981, dated 1985).
Where a name gives a salt, the structure may show the parent alone. Read-outs that look alike come from different tables or passages of the source.

Tests used:
[1] = system: beta-Lactamase; test: beta-Lactamase-inhibitory activity, producing strain Escherichia coli TN 713; type: biochemical
[2] = biological target: beta-Lactamase; test: beta-Lactamase-inhibitory activity, producing strain Proteus vulgaris GN 4413; type: biochemical
[3] = biological target: T1, beta-Lactamase (Staphylococcus aureus, UniProt P00807); test: beta-Lactamase-inhibitory activity, producing strain Staphylococcus aureus 1840; type: biochemical; conditions: read-out: beta-Lactamase-inhibitory activity [1D50] (converted)
T1 construct: endogenous in cells; host or cells: Staphylococcus aureus 1840 (producing strain)

[4] = system: Staphylococcus aureus FDA 209P; test: Antimicrobial spectrum (MIC), Staphylococcus aureus FDA 209P; type: cell-based; conditions: FDA209P
[5] = biological target: T2, beta-Lactamase (Enterobacter cloacae, UniProt P05364); test: beta-Lactamase-inhibitory activity, producing strain Enterobacter cloacae TN 1282; type: biochemical; conditions: read-out: beta-Lactamase-inhibitory activity [1D50] (converted)
T2 construct: endogenous in cells; host or cells: Enterobacter cloacae TN 1282 (producing strain)

[6] = system: Proteus vulgaris IFO 3988; test: Antimicrobial spectrum (MIC), Proteus vulgaris IFO 3988; type: cell-based; conditions: IFO3988
[7] = system: Escherichia coli NIHJ J2C; test: Antimicrobial spectrum (MIC), Escherichia coli NIHJ J2C; type: cell-based; conditions: NIHJJ2C
[8] = system: Salmonella typhimurium IFO 12529; test: Antimicrobial spectrum (MIC), Salmonella typhimurium IFO 12529; type: cell-based; conditions: Salmonella enterica
[9] = Proteus vulgaris IFO 3988, read-out: MIC

T2 sequence (P05364 21-381): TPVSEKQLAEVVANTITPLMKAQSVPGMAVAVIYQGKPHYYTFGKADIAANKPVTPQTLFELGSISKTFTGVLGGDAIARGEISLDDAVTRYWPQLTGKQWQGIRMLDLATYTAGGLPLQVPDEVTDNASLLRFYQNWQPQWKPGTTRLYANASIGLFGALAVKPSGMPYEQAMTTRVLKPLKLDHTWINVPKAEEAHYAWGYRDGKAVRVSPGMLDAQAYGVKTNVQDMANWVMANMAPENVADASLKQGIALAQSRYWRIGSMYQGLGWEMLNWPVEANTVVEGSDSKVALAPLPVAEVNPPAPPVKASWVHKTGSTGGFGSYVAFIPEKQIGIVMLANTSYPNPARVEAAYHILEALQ
T1 sequence (P00807 25-281): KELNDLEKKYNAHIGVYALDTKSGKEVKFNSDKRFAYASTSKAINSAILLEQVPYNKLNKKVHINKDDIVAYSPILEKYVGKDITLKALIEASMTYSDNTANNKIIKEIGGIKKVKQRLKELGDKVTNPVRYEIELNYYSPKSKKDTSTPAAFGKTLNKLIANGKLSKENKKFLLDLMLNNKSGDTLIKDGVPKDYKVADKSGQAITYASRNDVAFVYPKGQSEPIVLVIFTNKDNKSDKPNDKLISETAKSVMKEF

Structure (SMILES) | beta-Lactamase-inhibitory activity [1D50] [1] [µg/mL] | beta-Lactamase-inhibitory activity [1D50] [2] [µg/mL] | IC50 [3] [nM] | MIC [4] [µg/mL] | IC50 [5] [nM] | MIC [6, 9] [µg/mL] | MIC [7] [µg/mL] | MIC [8] [µg/mL] | MIC ([6]; Proteus vulgaris) [µg/mL]
CC(=O)N/C=C\[S@@+]([O-])C1=C(C(=O)[O-])N2C(=O)[C@@H](C(C)(C)O)[C@H]2C1.[Na+] [Ia, sodium [5R, 6R]-3-[(Z)-2-acetamidoethenyl-(R)-sulfinyl]-6-[1-hydroxy-1-methylethyl]-7-oxo-1-azabicyclo(3,2,0)-hept-2-ene-2-carboxylate] | 0.0016 | 0.00105 | 151 | 0.39 | 13.7 |  |  |  | 
CC(=O)N/C=C\[S@@+]([O-])C1=C(C(=O)O)N2C(=O)[C@@H](C(C)(C)OS(=O)(=O)O)[C@H]2C1 [Ib, [5R, 6R]-3-[(Z)-2-acetamidoethenyl-(R)-sulfinyl]-6-(1-hydroxysulfonyloxy-1-methylethyl)-7-oxo-1-azabicyclo (3,2,0)-hept-2-ene-2-carboxylic acid disodium salt] | 0.0001175 | 0.00055 | 568 | 2.5 | 36 | 40 | 20 | 20 | 
CC(=O)N/C=C\SC1=C(C(=O)[O-])N2C(=O)[C@@H](C(C)(C)O)[C@H]2C1.[Na+] [Ig, sodium [5R, 6R]-3-[(Z)-2-acetamidoethenyl-thio]-6-[1-hydroxy-1-methyl-ethyl]-7-oxo-1-azabicyclo(3,2,0)-hept-2-ene-2-carboxylate] | 0.010 | 0.017 |  | 0.625 | 86.1 |  | 2.5 | 2.5 | 5
CC(=O)N/C=C\SC1=C(C(=O)O)N2C(=O)[C@@H](C(C)(C)OS(=O)(=O)O)[C@H]2C1 [Ih, [5R, 6R]-3-[(Z)-2-acetamidoethenyl-thio]-6-[1-hydroxysulfonyloxy-1-methyl-ethyl]-7-oxo-1-azabicyclo(3,2,0)-hept-2-ene-2-carboxylic acid disodium salt] | 0.017 | 0.0038 | 2460 | 2.5 | 7.87 | < 40 | 40 | 20 | 
